Broadly, the Ki is the equilibrium dissociation constant of an inhibitor or competing ligand from its target. The low end stands for tighter binding, the high end for weaker binding.

What all share (format): biochemical
One test deals with T1, FXIIa alpha (Human) (Homo sapiens, UniProt P00748).
T1 construct: FXIIa alpha
T1 sequence (P00748 373-615 limits assumed): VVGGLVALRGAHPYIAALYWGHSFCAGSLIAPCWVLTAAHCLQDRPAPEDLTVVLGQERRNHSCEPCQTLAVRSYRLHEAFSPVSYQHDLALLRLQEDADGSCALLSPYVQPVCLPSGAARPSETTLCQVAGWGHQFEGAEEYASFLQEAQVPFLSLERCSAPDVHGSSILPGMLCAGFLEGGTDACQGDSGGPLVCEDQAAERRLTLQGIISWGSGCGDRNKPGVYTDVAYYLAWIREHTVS
T1 sequence (P00748 20-372 partner limits assumed): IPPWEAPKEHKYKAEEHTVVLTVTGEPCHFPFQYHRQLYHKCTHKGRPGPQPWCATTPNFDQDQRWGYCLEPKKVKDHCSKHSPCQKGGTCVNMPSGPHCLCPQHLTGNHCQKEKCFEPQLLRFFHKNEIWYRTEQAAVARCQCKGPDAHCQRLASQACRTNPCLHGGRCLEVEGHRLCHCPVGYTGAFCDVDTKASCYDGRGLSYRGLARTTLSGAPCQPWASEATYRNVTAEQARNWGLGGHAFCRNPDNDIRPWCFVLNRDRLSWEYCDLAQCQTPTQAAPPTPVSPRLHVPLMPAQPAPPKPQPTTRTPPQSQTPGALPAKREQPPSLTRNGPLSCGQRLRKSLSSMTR
The experiment in a line: Determination of Factor XIIa inhibition, chromogenic substrate S-2302. Conditions: 10 nM FXIIa, 450 μM S-2302, 37° C., pH 7.4; Ki converted from IC50. The procedure:
(§1) The activities of the compounds of the invention have been determined in vitro using the following assays protocols for the screening of activity of FXIa and other proteases. Each of these assays were performed in a purified system employing the use of chromogenic assays in microplate plate wells. Chromogenic peptide substrates mimicking natural protein substrates are attached via an amide bond to a chromogenic group. Paranitroaniline (pNA) is released from the peptide following catalyses by the proteolytic enzyme; the absorbance increases and can be monitored at 405 nm.
(§2) All compounds were dissolved in 100% (v/v) DMSO to a stock concentration of 10 mM, the highest concentration of compound used in each assay is 500 μM. The final concentrations of DMSO were 5% (v/v) in 50 mM Tris 137 mM NaCl pH 7.4. Where no test compound was added a final concentration of 5% DMSO was employed.
[…] activity was measured using a chromogenic substrate S-2302 (Chromogenix). Various concentrations of compound were incubated with 10 nM of FXIIa and incubated at 37° C. for 10 minutes in 50 mM Tris, 137 mM NaCl, pH 7.4, prior to the addition of a final concentration of 450 μM S-2302 chromogenic substrate. Kinetic readings at 405 nm were monitored every 12 secs for a total duration of 3 hours at 37° C. Gradients of initial rates were determined and employed to calculate IC50 values. Values of IC50 were converted to Ki values based on the formula:
(§3) Ki=IC50/(1+[Substrate]/Km)
The activity of the compounds of the invention has been categorised based on the Ki values, the categories being “*”, “**” and “***”. […] The category refers to compounds with a Ki value of 0.2 μM to 2 μM.

In another test the target is T2, Thrombin (human) (Homo sapiens, UniProt P00734).
T2 construct: FXa (5 nM) and thrombin (5 nM)
Description: Determination of selectivity: thrombin chromogenic assay (GPR substrate). Conditions: fold selectivity for FXIIa over thrombin; thrombin 5 nM, GPR 250 μM. The method, then: as §1, §2
(§4) To determine selectivity of test compounds, these test compounds were assayed for inhibitory activity against other serine proteases including FXa and thrombin. Essentially compounds at increasing concentrations were incubated with each enzyme: FXa (5 nM) and thrombin (5 nM), for 10 mins at 37° C. followed the appropriate chromogenic substrate, S2765 (350 μM), and GPR (250 μM) respectively in 50 mM Tris, 137 mM NaCl, pH 7.4. Chromogenic substrates S2765 was from Chromogenix, and GPR from Bachem. Kinetic readings at 405 nm were monitored every 12 secs for a total duration of 3 hours at 37° C. Gradients of initial rates were determined and employed to calculate IC50 values. Values of IC50 were converted to Ki values based on the formula:
as §3
(§5) Where [Substrate] denotes the concentration of substrate used in the assay and Km is the determined value of each enzyme with its own substrate.
The fold selectivity for FXIIa over thrombin for the compounds of the invention has been categorised based on the fold selectivity values, the categories being “+”, “++” and “+++”. The category “+” refers to fold selectivity values less than 10. The category “++” refers to a fold selectivity value of 10 to 100. The category “+++” refers to fold selectivity values greater than 100.

The target of a further test is FXa (human) (Homo sapiens, UniProt P00742). The experiment in a line: Determination of selectivity: FXa chromogenic assay (S2765 substrate). Conditions: fold selectivity for FXIIa over FXa; FXa 5 nM, S2765 350 μM. The procedure:
as §1, §2, §4, §3, §5
The fold selectivity for FXIIa over FXa for the compounds of the invention has been categorised based on the fold selectivity values, the categories being “o”, “oo” and “ooo”. The category “o” refers to fold selectivity values less than 10. The category “oo” refers to a fold selectivity value of 10 to 100. The category “ooo” refers to fold selectivity values greater than 100.

Chain of FXa (human) (P00742 235-488 limits assumed): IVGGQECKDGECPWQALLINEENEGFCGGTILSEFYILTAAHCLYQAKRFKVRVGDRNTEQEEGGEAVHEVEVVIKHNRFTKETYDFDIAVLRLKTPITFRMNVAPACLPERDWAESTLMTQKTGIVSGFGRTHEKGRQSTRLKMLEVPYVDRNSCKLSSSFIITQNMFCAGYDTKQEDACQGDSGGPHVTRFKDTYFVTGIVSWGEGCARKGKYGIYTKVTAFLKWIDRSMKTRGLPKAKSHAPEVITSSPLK
Chain of FXa (human) (P00742 41-179 partner limits assumed): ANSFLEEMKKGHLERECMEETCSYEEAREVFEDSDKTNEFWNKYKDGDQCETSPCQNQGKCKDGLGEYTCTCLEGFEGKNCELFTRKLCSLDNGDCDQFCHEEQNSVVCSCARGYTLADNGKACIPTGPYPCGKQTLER

Consider `COc1ccc(OC(=O)N2CCN(C(=O)[C@H](N)CCc3ccccc3)[C@H](C(=O)NCc3ccc4c(c3)nnn4C)C2)cc1` [Compound M00932], for which, on FXIIa alpha (Human), the inhibition constant Ki is over 2000 nM. For the same compound, the “Thrombin (human)/FXIIa alpha (human) fold selectivity” value (“Thrombin … (human) fold selectivity” for short) at Thrombin (human) was “++ (a fold selectivity value of 10 to 100)”. Besides, the “FXa (human)/FXIIa alpha (human) fold selectivity” value (“FXa … (human) fold selectivity” for short) at FXa (human) is given as “oo (a fold selectivity value of 10 to 100)”.
The matching figures for `Cn1nnc2cc(CNC(=O)[C@@H]3CN(C(=O)Oc4ccc(Cl)cc4)CCN3C(=O)[C@H](N)CCc3ccccc3)ccc21` [Compound M00933]: over 2000 nM, “++ (a fold selectivity value of 10 to 100)” and “oo (a fold selectivity value of 10 to 100)”.
On the same counts, the results for `Cc1ccc(OC(=O)N2CCN(C(=O)[C@H](N)CCc3ccccc3)[C@H](C(=O)NCc3ccc4c(c3)nnn4C)C2)cc1` [Compound M00934] are over 2000 nM, “++ (a fold selectivity value of 10 to 100)” and “oo (a fold selectivity value of 10 to 100)”.
The matching figures for `O=C(NCc1cc2ccncc2[nH]1)[C@@H]1CN(C(=O)OCc2ccccc2)CCN1C(=O)[C@H]1C[C@@H](c2ccccc2)CN1` [Compound M00950]: 200 to 2000 nM, “++ (a fold selectivity value of 10 to 100)” and “oo (a fold selectivity value of 10 to 100)”.
Consider `N[C@H](CCC(=O)N1CCCC1)C(=O)N1CCN(C(=O)OCc2ccccc2)C[C@H]1C(=O)NCc1cc2ccncc2[nH]1` [Compound M00951], for which the Ki on FXIIa alpha (Human) was 200 to 2000 nM. In addition, on Thrombin (human), the “Thrombin … (human) fold selectivity” value is recorded as “++ (a fold selectivity value of 10 to 100)”. At FXa (human), the “FXa … (human) fold selectivity” value is “oo (a fold selectivity value of 10 to 100)”.
On the same counts, the results for `N[C@H](CCC(=O)N1CCCC1)C(=O)N1CCN(C(=O)OCc2ccccc2)C[C@H]1C(=O)NCc1cc2cnccc2[nH]1` [Compound M00971] are under 200 nM, “+++ (fold selectivity values greater than 100)” and “ooo (fold selectivity values greater than 100)”.
On the same counts, the results for `NCc1ccc(CNC(=O)[C@@H]2CN(C(=O)OCc3ccccc3)CCN2C(=O)[C@H](N)CCc2ccccc2)cc1` [Compound M05086] are over 2000 nM, “++ (a fold selectivity value of 10 to 100)” and “oo (a fold selectivity value of 10 to 100)”.
With `Cn1nnc2cc(CNC(=O)[C@@H]3CN(C(=O)OCc4ccccc4)CCN3C(=O)[C@H](N)CCc3ccccc3)ccc21` [Compound M05098, (S)-4-((R)-2-Amino-4-phenyl-butyryl)-3-[(1-methyl-1H-benzotriazol-5-ylmethyl)-carbamoyl]-piperazine-1-carboxylic acid benzyl ester], the Ki at FXIIa alpha (Human) was over 2000 nM. At Thrombin (human), the “Thrombin … (human) fold selectivity” value was “++ (a fold selectivity value of 10 to 100)”. The “FXa … (human) fold selectivity” value on FXa (human) is on record as “oo (a fold selectivity value of 10 to 100)”.
`Nc1noc2cc(CNC(=O)[C@@H]3CN(C(=O)OCc4ccccc4)CCN3C(=O)[C@H](N)CCc3ccccc3)ccc12` [Compound M05124]: the Ki on FXIIa alpha (Human) is over 2000 nM. For the same compound, the “Thrombin … (human) fold selectivity” value at Thrombin (human) is recorded as “+ (fold selectivity values less than 10)”. In addition, the “FXa … (human) fold selectivity” value at FXa (human) is “oo (a fold selectivity value of 10 to 100)”.
On the same counts, the results for `Nc1cc(CNC(=O)[C@@H]2CN(C(=O)OCc3ccccc3)CCN2C(=O)[C@H](N)CCC(=O)N2CCCC2)ccn1` [Compound M05209] are 200 to 2000 nM, “+++ (fold selectivity values greater than 100)” and “oo (a fold selectivity value of 10 to 100)”.
Regarding `Cn1nnc2cc(CNC(=O)[C@@H]3CN(C(=O)OCc4ccccc4)CCN3C(=O)[C@H](N)CCC(=O)N3CCCC3)ccc21` [Compound M05212], the Ki at FXIIa alpha (Human) was over 2000 nM. Further, on Thrombin (human), the “Thrombin … (human) fold selectivity” value is given as “+++ (fold selectivity values greater than 100)”. For the same compound, the “FXa … (human) fold selectivity” value at FXa (human) is “ooo (fold selectivity values greater than 100)”.
On the same counts, the results for `N[C@H](CCC(=O)N1CCCC1)C(=O)N1CCN(C(=O)OCc2ccccc2)C[C@H]1C(=O)NCc1ccc2[nH]cnc2c1` [Compound M05213] are over 2000 nM, “++ (a fold selectivity value of 10 to 100)” and “oo (a fold selectivity value of 10 to 100)”.
On FXIIa alpha (Human), `CN(C)[C@H](CCC(=O)N1CCCC1)C(=O)N1CCN(C(=O)OCc2ccccc2)C[C@H]1C(=O)NCc1ccc2[nH]cnc2c1` [Compound M05217] yielded a Ki of over 2000 nM. In addition, the “Thrombin … (human) fold selectivity” value on Thrombin (human) was “++ (a fold selectivity value of 10 to 100)”. For the same compound, the “FXa … (human) fold selectivity” value at FXa (human) is reported as “oo (a fold selectivity value of 10 to 100)”.
The matching figures for `Cn1nnc2cc(CNC(=O)[C@@H]3CC(Oc4ncccn4)CCN3C(=O)[C@H](N)CCC(=O)N3CCCC3)ccc21` (stereo partly drawn) [Compound M05252]: over 2000 nM, “++ (a fold selectivity value of 10 to 100)” and “oo (a fold selectivity value of 10 to 100)”.
The matching figures for `Cn1nnc2cc(CNC(=O)[C@@H]3CN(C(=O)OCc4ccccc4)CCN3C(=O)[C@H]3C[C@@H](c4ccccc4)CN3)ccc21` [Compound M05276]: over 2000 nM, “++ (a fold selectivity value of 10 to 100)” and “oo (a fold selectivity value of 10 to 100)”.
Take `Cn1nnc2cc(CNC(=O)[C@@H]3C[C@@H](c4ccccc4)CCN3C(=O)[C@H](N)CCC(=O)N3CCCC3)ccc21` [Compound M05375]: the Ki at FXIIa alpha (Human) is over 2000 nM. For the same compound, the “Thrombin … (human) fold selectivity” value on Thrombin (human) is “++ (a fold selectivity value of 10 to 100)”. Moreover, on FXa (human), the “FXa … (human) fold selectivity” value is reported as “oo (a fold selectivity value of 10 to 100)”.
`Cn1nnc2cc(CNC(=O)[C@@H]3C[C@H](c4ccccc4)CCN3C(=O)[C@H](N)CCC(=O)N3CCCC3)ccc21` [Compound M05385] displayed a Ki at FXIIa alpha (Human) of over 2000 nM. For the same compound, at Thrombin (human), the “Thrombin … (human) fold selectivity” value is “++ (a fold selectivity value of 10 to 100)”. Moreover, at FXa (human), the “FXa … (human) fold selectivity” value is “oo (a fold selectivity value of 10 to 100)”.

For the origin of these results see patent US20210087172A1, “FACTOR XIIa INHIBITORS” (UNIVESITY OF LEEDS, priority 2018, published 2021).
